Experimental data taken from PubChem BioAssay AID540349 (The Scripps Research Institute Molecular Screening Center, 2011).
Active and inactive are the calls of the source. How the calls were made is not given here.

Target: Sphingosine 1-phosphate receptor 3 (Homo sapiens) (UniProt Q99500)
Assay: activation of S1P3 receptor – cell-based, fluorescence, synthesized compounds, SAR follow-up (AID 540349)
Settings: S1P3-expressing cells, agonist fluorescence read-out

Sphingosine 1-phosphate receptor 3 (Homo sapiens), sequence (Q99500 whole entry, looked up): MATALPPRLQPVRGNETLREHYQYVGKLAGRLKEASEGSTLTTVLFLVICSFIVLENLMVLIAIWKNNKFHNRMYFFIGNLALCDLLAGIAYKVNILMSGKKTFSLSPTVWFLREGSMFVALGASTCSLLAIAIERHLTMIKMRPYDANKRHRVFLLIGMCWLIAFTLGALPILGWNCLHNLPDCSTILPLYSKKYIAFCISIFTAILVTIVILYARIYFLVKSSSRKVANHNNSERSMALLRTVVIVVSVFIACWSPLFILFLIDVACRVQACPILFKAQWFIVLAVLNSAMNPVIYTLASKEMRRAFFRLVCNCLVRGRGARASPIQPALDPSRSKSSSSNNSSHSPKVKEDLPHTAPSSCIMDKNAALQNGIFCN

SMILES | EC50 (run 1) | EC50 (run 2) | EC50 (run 3)
COc1ccc(-c2cc(C(=O)N(C3CCCCC3)C3CCCCC3)no2)cc1OC | > 10000 nM (inactive) | > 50000 nM (inactive) | > 50000 nM (inactive)
O=C(c1ccc(C2CC2)o1)N(C1CCCCC1)C1CCCCC1 | > 10000 nM (inactive) | > 50000 nM (inactive) | > 50000 nM (inactive)
O=C(c1cc(C2CC2)on1)N(CC1CCCCC1)C1CCCCC1 | 6400 nM | 2160 nM | 1730 nM
O=C(NC1CCCCC1)c1cc(C2CC2)on1 | > 10000 nM (inactive) | > 50000 nM (inactive) | > 50000 nM (inactive)
O=C(c1cc(C2CC2)on1)N(C1CCCCC1)C1CCCCC1 | 72.3 nM | 132 nM | 112 nM
O=C(c1cc(C2CC2)on1)N(Cc1ccccc1)Cc1ccccc1 | > 10000 nM (inactive) | > 50000 nM (inactive) | > 50000 nM (inactive)
O=C(c1cc(C2CC2)on1)N(C1CCCCC1)C1CCOCC1 | 3830 nM | 3730 nM | 3050 nM
COc1ccc(N(Cc2ccccc2)C(=O)c2cc(C3CC3)on2)cc1 | > 10000 nM (inactive) | inactive | inactive
CC1CCCCC1N(C(=O)c1cc(C2CC2)on1)C1CCCCC1C (configuration not stated) | 280 nM | 126 nM | 200 nM
CC1CCCCC1N(C(=O)c1cc(C2CC2)on1)C1CCCCCC1 (configuration not stated) | 842 nM | 285 nM | 478 nM
O=C(c1cc(-c2ccccc2)on1)N(C1CCCCC1)C1CCCC1 | 1550 nM | 519 nM | 472 nM
CC(C)c1cc(C(=O)N(C2CCCCC2)C2CCCCC2)no1 | 1410 nM | 799 nM | 668 nM
CCCc1cc(C(=O)N(C2CCCCC2)C2CCCCC2)no1 | 495 nM | 335 nM | 471 nM
CC1CCCCC1N(C(=O)c1cc(C2CC2)on1)C1CCCCC1 (configuration not stated) | 349 nM | 326 nM | 337 nM
CCOc1ccc(-c2nc(C(=O)N(C3CCCCC3)C3CCCCC3)co2)cc1OCC | > 10000 nM (inactive) | 8010 nM | 8130 nM
CCCc1cc(C(=O)N(C2CCCCC2)C2CCCC2)no1 | > 10000 nM (inactive) | inactive | 5670 nM
O=C(c1coc(C2CC2)n1)N(C1CCCCC1)C1CCCCC1 | > 10000 nM (inactive) | > 50000 nM (inactive) | > 50000 nM (inactive)
CCN(CC)C(=O)c1cc(C2CC2)on1 | > 10000 nM (inactive) | > 50000 nM (inactive) | > 50000 nM (inactive)
O=C(c1cc(C2CC2)on1)N(Cc1ccccc1)c1ccccc1 | 7620 nM | 8130 nM | 5250 nM
O=C(c1cc(-c2ccccc2)on1)N(C1CCCCC1)C1CCCCC1 | 216 nM | 35.2 nM | 58.9 nM
O=C(c1cc(C2CC2)on1)N(Cc1ccccc1)c1ccccn1 | 6890 nM | 7540 nM | 5230 nM
CCCc1cc(C(=O)NC2CCCCC2)no1 | > 10000 nM (inactive) | > 50000 nM (inactive) | > 50000 nM (inactive)
CC1CCCCC1N(C(=O)c1cc(C2CC2)on1)C1CCCC1 (configuration not stated) | 2610 nM | 1080 nM | 1530 nM
CC(C)Cc1cc(C(=O)N(C2CCCCC2)C2CCCCC2)no1 | 2080 nM | 785 nM | 1260 nM
O=C(c1cc(C2CC2)on1)N(C1CCCCCC1)C1CCCC1 | 3910 nM | 2390 nM | 1960 nM
O=C(c1cc(C2CC2)on1)N(C1CCCCC1)C1CCCC1 | 2770 nM | 1220 nM | 1060 nM
COc1ccc(-c2cc(C(=O)N(C3CCCCC3)C3CCCCC3)no2)cc1 | 583 nM | 173 nM | 212 nM
O=C(c1noc2ccccc12)N(C1CCCCC1)C1CCCCC1 | > 10000 nM (inactive) | > 50000 nM (inactive) | > 50000 nM (inactive)
CC1CCCCC1N(C(=O)c1cc(C2CC2)on1)C1CCOCC1 (configuration not stated) | > 10000 nM (inactive) | 2230 nM | 3410 nM
